Laboratory results: US4055640A, “Compositions and methods for controlling the growth of bacteria, fungi and algae using certain derivatives of N-(2,2-dichlorovinyl)salicylamides” (Nippon Kayaku Co., Ltd., priority 1975, dated 1977)
Converted amounts (≈) assume the structure as drawn.

Tests used:
[1] = system: seedling blight of rice plant (pathogen Fusarium sp. and Rhizoctonia sp.); experiment: Exterminating test on seedling blight of rice plant (Experimental Example 1); format: in vivo; conditions: soil, 408 h, read-out: Percentage of healthy seedlings
Summary of the method: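 Pathogen-contaminated nursery soil (Fusarium sp., Rhizoctonia sp.) mixed with 5% compound dust at 5 g per box; Nihonbare rice sown, grown 7 days at 17° C in lighting chamber, then moved to field. Assessed 10 days later as percentage of healthy seedlings; commercial 4% hydroxyisoxazol dust run as control.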

[2] = system: rice plant (variety: Nihonbare); experiment: Phytotoxicity on rice plant (Experimental Example 1); format: in vivo; conditions: 0.25g/box a.i.
Method: Exterminating test on seedling blight of rice plant Nursery boxes (60 × 30 × 3 cm) were filled with soil which were contaminated with pathogen (Fusarium sp. and Rhizoctonia sp.) The dust in which the present compound was contained in a ratio of 5% by weight was added in the box in a ratio of 5 grams per box and mixed well with soil. Thereafter, seeds of rice plant (variety: Nihonbare) were sowed in drills at a rate of 0.3 liter per box and grown up in a lighting chamber at 17° C. After 7 days from the sowing, the boxes were carried out in the field. Furthermore, 10 days thereafter the observations were made. Four percent (4%) dust of 3-hydroxy-5-methyl isoxazol (hereinafter referred to as hydroxyisoxazol) on the market was used as a control and tested by the same method. The test results are shown in Table 2 with a "percentage of healthy seedlings". The percentage of healthy seedlings was calculated as follows: […]

[3] = system: cucumber (variety: Azumamidori); experiment: Phytotoxicity on cucumber (Experimental Example 3); format: in vivo; conditions: 1,000 ppm
[4] = system: Fusarium wilt of cucumber; experiment: Exterminating test on Fusarium wilt of cucumber (Experimental Example 4); format: in vivo, Fusarium oxysporum f, cucumerinum; conditions: Fusarium, soil, 336 h, read-out: Percentage of healthy seedlings
Summary of the method: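 Pots of steam-sterilized soil mixed with 20 g infested soil, sown with 18 cucumber seeds (Tokiwazibai), drenched with 100 ml aqueous suspension of 80% wettable powder. Benlate 50% wettable powder run as control. Disease scored two weeks after planting as percentage of healthy seedlings.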

[5] = system: Aspergillus niger; experiment: Minimum inhibitory amount, dilution methods (Example 24); format: cell-based; conditions: Aspergillus niger, read-out: Minimum inhibitory amount
From the text: (§1) Bactericidal activity and fungicidal activity of the active compounds of the present invention were examined by potato-dextrose agar dilution method, or [2] glucose bouillon medium dilution method. The results are shown in Table 10 below as the minimum inhibitory concentration (the minimum concentration of active compound found to produce 100% control of the test bacteria and fungi).

[6] = system: Cladosporium harbarum; experiment: as above; format: cell-based; conditions: Cladosporium, read-out: Minimum inhibitory amount
From the text: as §1

[7] = system: Staphylococcus aureus; experiment: as above; format: cell-based; conditions: Staphylococcus aureus, read-out: Minimum inhibitory amount
From the text: as §1

[8] = system: Escherichia coli; experiment: as above; format: cell-based; conditions: Escherichia coli, read-out: Minimum inhibitory amount
From the text: as §1

[9] = system: Penicillium Citrinum; experiment: as above; format: cell-based; conditions: Penicillium citrinum, read-out: Minimum inhibitory amount
From the text: as §1

[10] = system: Bacillus subtilis; experiment: as above; format: cell-based; conditions: Bacillus subtilis, read-out: Minimum inhibitory amount
From the text: as §1

[11] = system: cucumber (variety; Tokiwazibai); experiment: Phytotoxicity on cucumber (Experimental Example 4); format: in vivo; conditions: 500 ppm
Method: Exterminating test on Fusarium wilt of cucumber Twenty (20) grams of infected soil was added uniformly into each pot which was filled with steam sterilized field soil, then 18 seeds of cucumber (variety; Tokiwazibai) were sowed in each pot. Eighty percent (80%) wettable powder of the present invention was diluted with water to obtain a suspension, and each pot was drenched with the suspension in an amount of 100 ml. Fifty percent (50%) wettable powder of methyl-1-(butylcarbamoyl) 2-benzimidazol carbamate (hereinafter referred to as Benlate) on the market was used as a control and tested by the same method. After two weeks of planting, degrees attacked by the pathogen was observed and a "percentage of healthy seedlings" was calculated as follows: [formula]

[12] = system: Rhizoctonia solani (damping-off of cucumber); experiment: Exterminating test on damping-off of cucumber (Experimental Example 3); format: in vivo; conditions: Rhizoctonia solani, soil, 240 h, read-out: Percentage of healthy seedlings
Summary of the method: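 Pots of field soil infested with Rhizoctonia solani (5 g/pot), sown with 10 Azumamidori cucumber seeds, then drenched with 50 ml aqueous suspension of 80% wettable powder and kept in greenhouse. PCNB 50% wettable powder as control. Percentage of healthy seedlings scored 10 days after inoculation.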

In the case of CNC(=O)Oc1ccccc1C(=O)NC=C(Cl)Cl [Compound No. 19, O-(N'-methylcarbamoyl)-N-(2,2-dichlorovinyl) salicylamide], the Percentage of healthy seedlings at 0.25 g/box [1] is reported as 64.7%, the Phytotoxicity [2] is reported as “Nil” and the Phytotoxicity [3] is reported as “Nil”. For the same compound, the pest or weed control at 500 ppm [4] was 38%, the MIC [5] was 20 µg/mL (≈ 69.2 µM) and the MIC [6] was 5 µg/mL (≈ 17.3 µM). It also gave an MIC [7] of 10 µg/mL (≈ 34.6 µM), an MIC [8] of 60 µg/mL (≈ 208 µM) and an MIC [9] of 10 µg/mL (≈ 34.6 µM). For the same compound, the MIC [10] was 10 µg/mL (≈ 34.6 µM), the Phytotoxicity [11] was “Nil” and the pest or weed control at 1000 ppm [12] was 65%.
